Consider eight compounds from patent publication US20080293683A1, “Hormone Replacement Therapy” (University of Kansas Medical Center, priority 2007, published 2008).

pIC50: −log10 of the molar value. Where “and” joins values, the source holds several entries; their conditions need not be identical. Equal entries are not always repeated. Where two headings read alike, the source gives them in different places.

The target of assay [1] is T1, recombinant human ERβ (Homo sapiens, UniProt Q92731).
T1 construct: purchased PanVera Corporation (Madison, Wis.); host or cells: baculovirus-mediated expression system
The assay is described as follows: ERβ binding assay: competition of [3H]E2 binding by competing estrogens. The note with it: for RBAβ (%) (relative binding affinity for ERβ, of E2): calculated against E2 = 100. The source says:
(§1) The recombinant human ERα and ERβ proteins and bovine serum albumin (BSA) were obtained from PanVera Corporation (Madison, Wis.). According to the supplier, the recombinant human ERα and ERβ were produced in a baculovirus-mediated expression system, and they were soluble and functionally active, with post-translational modifications similar to those found in mammalian cells. See Reid et al., Human estrogen receptor-α: Regulation by synthesis, modification and degradation, Cell. Mol. Life.
(§2) The following buffer solutions were used in the ER binding assays, and they were prepared beforehand and stored at 4° C. The binding buffer consisted of 10% glycerol, 2 mM dithiothreitol, 1 mg/mL BSA and 10 mM Tris-HCl at pH 7.5. The ERα washing buffer contained 40 mM Tris-HCl and 100 mM KCl (pH 7.4), but the ERG washing buffer contained only 40 mM Tris-HCl (adjusted to pH 7.4). The 50% hydroxylapatite slurry was prepared first by vigorously mixing 10 g hydroxylapatite with 60 mL of the Tris-HCl solution (50 mM, pH 7.4). Hydroxylapatite was then allowed to settle for 20 minutes at room temperature, and the supernatant was decanted. The above procedures were repeated 10 times, and afterwards hydroxylapatite was kept in the 50 mM Tris-HCl solution overnight at 4° C. Hydroxylapatite slurry was then adjusted to an approximate final concentration of 50% (v/v) using the same Tris-HCl solution and stored at 4° C., and the slurry was stable for up to several months.
(§3) Note that all of the estrogens were initially dissolved in pure ethanol to a stock concentration of 1 mM, and then further diluted to 100 μM with 20% aqueous ethanol. […] Immediately before the addition of the ERα or ERβ protein, it was diluted in the binding buffer and mixed gently with repetitive pipettings. […] The incubation mixture was then mixed gently and thoroughly with repetitive pipettings. […] The binding mixture was incubated at room temperature for two hours. At the end of the incubation, 100 μL of the hydroxylapatite slurry was added to each tube and the tubes were incubated on ice for 15 minutes with 3 times of brief vortexing. An aliquot (1 mL) of the appropriate washing buffer was added, mixed, and centrifuged at 10,000 g for five minutes, and the supernatants were discarded. This wash step was repeated twice. Hydroxylapatite pellets were then resuspended in 200 μL ethanol (followed by another rinse with 200 μL ethanol), and then the content was transferred to scintillation vials (containing 4 mL of the scintillation fluid) for measurement of ^3H-radioactivity with a liquid scintillation counter (Packard Tri-CARB 2900 TR; Downers Grove, Ill.).
(§4) To calculate the specific binding (pmol/mL) of the human ERα or ERβ protein at each concentration point, the following equation was used: […]
(§5) When a lower radioligand concentration is used, the corresponding IC50 value will also be relatively lower, but when the radioligand concentration increases, the corresponding IC50 value will also increase. […] Since the RBA value is a parameter that is independent of the radioligand concentration used, we thus have placed more emphasis on the RBA values instead of the absolute IC50 values in interpreting the physiological meanings of the data from in vitro receptor competition assays.

Assay [2] concerns the target T2, recombinant human ERα (Homo sapiens, UniProt P03372).
T2 construct: purchased PanVera Corporation (Madison, Wis.); host or cells: baculovirus-mediated expression system
T2 sequence (P03372 1-595): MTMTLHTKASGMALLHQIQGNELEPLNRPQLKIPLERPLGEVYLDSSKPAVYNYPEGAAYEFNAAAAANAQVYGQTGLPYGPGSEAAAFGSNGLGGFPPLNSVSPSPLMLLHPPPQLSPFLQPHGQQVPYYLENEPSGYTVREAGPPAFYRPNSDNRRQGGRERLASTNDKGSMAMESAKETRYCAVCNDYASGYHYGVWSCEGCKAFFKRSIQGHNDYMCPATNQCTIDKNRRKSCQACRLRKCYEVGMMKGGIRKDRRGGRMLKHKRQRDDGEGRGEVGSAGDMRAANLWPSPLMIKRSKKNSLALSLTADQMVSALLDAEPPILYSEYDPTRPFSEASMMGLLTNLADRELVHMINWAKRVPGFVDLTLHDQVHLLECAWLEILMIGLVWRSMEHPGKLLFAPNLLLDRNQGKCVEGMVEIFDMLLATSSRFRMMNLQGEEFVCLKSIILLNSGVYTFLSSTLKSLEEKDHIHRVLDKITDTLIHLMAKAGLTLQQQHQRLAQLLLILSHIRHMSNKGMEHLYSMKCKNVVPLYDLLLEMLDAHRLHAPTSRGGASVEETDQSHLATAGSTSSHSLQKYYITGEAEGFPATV
The assay is described as follows: ERα binding assay: competition of [3H]E2 binding by competing estrogens. The note with it: for RBAα % (relative binding affinity for ERα, of E2): calculated against E2 = 100; for RBAα/RBAβ: ratio of relative binding affinities ERα over ERβ.
Source text: as §1, §2, §3, §4, §5

T1 sequence (Q92731 whole entry): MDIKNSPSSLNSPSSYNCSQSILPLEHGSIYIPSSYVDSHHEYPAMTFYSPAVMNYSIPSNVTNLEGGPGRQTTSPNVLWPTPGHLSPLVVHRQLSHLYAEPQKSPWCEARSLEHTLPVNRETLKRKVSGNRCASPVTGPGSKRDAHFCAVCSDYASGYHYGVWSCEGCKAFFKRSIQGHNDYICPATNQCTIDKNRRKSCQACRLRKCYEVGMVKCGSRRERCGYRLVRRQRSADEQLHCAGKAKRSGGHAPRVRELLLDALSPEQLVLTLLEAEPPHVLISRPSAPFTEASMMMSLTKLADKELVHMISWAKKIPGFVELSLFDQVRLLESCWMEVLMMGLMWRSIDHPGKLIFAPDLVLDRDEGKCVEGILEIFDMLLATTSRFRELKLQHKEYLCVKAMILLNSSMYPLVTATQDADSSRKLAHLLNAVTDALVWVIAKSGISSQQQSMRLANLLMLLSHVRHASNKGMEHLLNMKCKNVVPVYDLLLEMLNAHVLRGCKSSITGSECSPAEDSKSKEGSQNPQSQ

With `C[C@]12CC[C@@H]3c4ccc(O)c(Br)c4CC[C@H]3[C@@H]1CC[C@@H]2O` [4-Br-E2, 4-Bromoestradiol], the “preference of binding affinity for ERβ over ERα” value in assay [1] (ERβ over ERα) is “about 5 fold”. For the same compound, in assay [1], the “RBAβ (%) (relative binding affinity for ERβ, of E2)” value is 35%. In addition, in assay [1] (read-out: ERβ IC50), the pIC50 (as a rule, the IC50 on a negative log10 scale, so that one unit is a factor of ten) is 7.60. In addition, in assay [2], the “RBAα % (relative binding affinity for ERα, of E2)” value was 7% and the RBAα/RBAβ was 0.2. Besides, the pIC50 in assay [2] (read-out: ERα IC50) was 6.80.

As to `O=c1c(O)c(-c2cc(O)c(O)c(O)c2)oc2cc(O)cc(O)c12` [Myricetin, reference compound], the “binding affinity for ERβ (in words)” value in assay [1] (concentrations up to 1000 nM) is “no appreciable binding affinity”. Besides, the pIC50 in assay [1] (read-out: ERβ IC50) and in assay [2] (read-out: ERα IC50) was less than 6.00 each time. Further, the “binding affinity for ERα (in words)” value in assay [2] (concentrations up to 1000 nM) is “no appreciable binding affinity”.

Take `C/C=C(/C(=C/C)c1ccc(O)cc1)c1ccc(O)cc1` [Dienestrol, reference compound]: the “RBAβ (%) (relative binding affinity for ERβ, of E2)” value in assay [1] is 56%. Moreover, in assay [1] (read-out: ERβ IC50), the pIC50 was 7.70. Besides, in assay [2], the “RBAα % (relative binding affinity for ERα, of E2)” value was 37% and the RBAα/RBAβ came out at 0.7. Moreover, the pIC50 in assay [2] (read-out: ERα IC50) is 7.52.

Take `C[C@]12CC[C@@H]3c4cc(O)c(O)cc4CC[C@H]3[C@@H]1CC[C@@H]2O` [2-OH-E2, 2-Hydroxyestradiol]: in assay [1], the pIC50 was 7.60 and the “RBAβ (%) (relative binding affinity for ERβ, of E2)” value is recorded as 35%. Besides, in assay [2], the negative logarithm of the IC50 (pIC50) is 7.30; the “RBAα % (relative binding affinity for ERα, of E2)” value is 22%; the RBAα/RBAβ worked out at 0.6.

For the compound `CC[C@H](c1ccc(O)cc1)[C@@H](CC)c1ccc(O)cc1` [Hexestrol, reference compound], in assay [1], the “RBAβ (%) (relative binding affinity for ERβ, of E2)” value was 60%. Also, in assay [1] (read-out: ERβ IC50), the negative logarithm of the IC50 (pIC50) was 7.73. For the same compound, in assay [2], the “RBAα % (relative binding affinity for ERα, of E2)” value is 31% and the RBAα/RBAβ worked out at 0.5. Besides, the pIC50 in assay [2] (read-out: ERα IC50) is 7.44.

Regarding `C[C@]12CC[C@@H]3c4ccc(O)cc4[C@@H](O)C[C@H]3[C@@H]1CC[C@@H]2O` [6α-OH-E2, 6α-Hydroxyestradiol], the “RBAβ (%) (relative binding affinity for ERβ, of E2)” value in assay [1] is 4%. The pIC50 in assay [1] (read-out: ERβ IC50) is 6.60; in assay [2] (read-out: ERα IC50), 6.70. In addition, in assay [2], the “RBAα % (relative binding affinity for ERα, of E2)” value is given as 6%. Also, the RBAα/RBAβ was 1.5 in assay [2] and “about 1.5” in assay [2] (listed as 6α-hydroxyestradiol).

On to `C#C[C@]1(O)CC[C@H]2[C@@H]3CCc4cc(O)ccc4[C@H]3[C@@H](OC)C[C@@]21C` [11β-MeO-EE2, 11β-Methoxyethynylestradiol], for which the “RBAβ (%) (relative binding affinity for ERβ, of E2)” value in assay [1] is 20%. In addition, the pIC50 was 7.35 in assay [1] (read-out: ERβ IC50) and 7.50 in assay [2] (read-out: ERα IC50). Besides, the “RBAα % (relative binding affinity for ERα, of E2)” value in assay [2] is 35%. In addition, the RBAα/RBAβ in assay [2] is 1.8; in assay [2] (listed as 11β-methoxyethynyl estradiol), “about 1.8”.

`CC12CCC3c4cc(Br)c(O)cc4CCC3C1CCC2O` (stereo not shown) [2-Br-E2, 2-Bromoestradiol]: the “RBAβ (%) (relative binding affinity for ERβ, of E2)” value in assay [1] was < 0.5% and 0.4%. The pIC50 in assay [1] (read-out: ERβ IC50) was 5.60; in assay [2] (read-out: ERα IC50) it was 6.55. In addition, the “RBAα % (relative binding affinity for ERα, of E2)” value in assay [2] is 4%. Also, the RBAα/RBAβ in assay [2] is recorded as 10; in assay [2] (listed as 2-bromoestradiol) it was “about 10”.
